# What was measured:
# PIK3CA (human) = PIK3CA (human) (UniProt P42336); assay: Inhibition of PIK3CA Kinase Activity
# PIK3CD (Human) = PIK3CD (Human) (UniProt O00329); assay: Enzyme Assay
# PIK3CG (human) = PIK3CG (human) (UniProt P48736); assay: Enzyme Assay
# PIK3CB (Human) = PIK3CB (Human) (UniProt P42338); assay: Inhibition of PIK3CB Kinase Activity
# Sequence of PIK3CB (Human) (P42338 whole entry, looked up): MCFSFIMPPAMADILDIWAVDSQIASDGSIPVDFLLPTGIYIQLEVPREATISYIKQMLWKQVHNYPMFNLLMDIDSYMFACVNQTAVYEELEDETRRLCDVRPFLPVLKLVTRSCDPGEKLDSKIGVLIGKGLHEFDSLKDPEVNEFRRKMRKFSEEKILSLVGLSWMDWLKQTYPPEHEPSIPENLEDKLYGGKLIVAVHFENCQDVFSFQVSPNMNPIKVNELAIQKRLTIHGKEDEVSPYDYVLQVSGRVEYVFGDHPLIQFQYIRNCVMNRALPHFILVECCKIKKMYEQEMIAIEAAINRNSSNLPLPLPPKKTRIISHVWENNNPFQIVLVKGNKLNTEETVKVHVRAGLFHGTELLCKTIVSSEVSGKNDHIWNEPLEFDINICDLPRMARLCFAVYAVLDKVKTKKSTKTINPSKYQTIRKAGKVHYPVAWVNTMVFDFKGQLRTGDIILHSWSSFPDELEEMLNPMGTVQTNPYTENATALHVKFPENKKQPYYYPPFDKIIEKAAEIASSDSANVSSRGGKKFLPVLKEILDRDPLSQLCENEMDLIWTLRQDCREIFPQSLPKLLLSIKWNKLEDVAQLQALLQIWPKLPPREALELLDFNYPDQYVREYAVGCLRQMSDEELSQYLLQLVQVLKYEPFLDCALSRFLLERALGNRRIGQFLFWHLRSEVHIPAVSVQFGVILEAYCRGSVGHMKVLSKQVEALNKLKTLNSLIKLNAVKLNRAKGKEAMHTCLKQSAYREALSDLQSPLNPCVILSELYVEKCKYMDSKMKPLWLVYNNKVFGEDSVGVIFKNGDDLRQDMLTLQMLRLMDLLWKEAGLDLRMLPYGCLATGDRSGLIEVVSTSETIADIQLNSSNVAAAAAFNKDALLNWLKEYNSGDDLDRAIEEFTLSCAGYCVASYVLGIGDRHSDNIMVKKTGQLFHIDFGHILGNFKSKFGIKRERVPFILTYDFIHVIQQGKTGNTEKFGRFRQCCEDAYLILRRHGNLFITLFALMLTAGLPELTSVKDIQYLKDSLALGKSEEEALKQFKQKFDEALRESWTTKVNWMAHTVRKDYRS
# Sequence of PIK3CA (human) (P42336 whole entry, looked up): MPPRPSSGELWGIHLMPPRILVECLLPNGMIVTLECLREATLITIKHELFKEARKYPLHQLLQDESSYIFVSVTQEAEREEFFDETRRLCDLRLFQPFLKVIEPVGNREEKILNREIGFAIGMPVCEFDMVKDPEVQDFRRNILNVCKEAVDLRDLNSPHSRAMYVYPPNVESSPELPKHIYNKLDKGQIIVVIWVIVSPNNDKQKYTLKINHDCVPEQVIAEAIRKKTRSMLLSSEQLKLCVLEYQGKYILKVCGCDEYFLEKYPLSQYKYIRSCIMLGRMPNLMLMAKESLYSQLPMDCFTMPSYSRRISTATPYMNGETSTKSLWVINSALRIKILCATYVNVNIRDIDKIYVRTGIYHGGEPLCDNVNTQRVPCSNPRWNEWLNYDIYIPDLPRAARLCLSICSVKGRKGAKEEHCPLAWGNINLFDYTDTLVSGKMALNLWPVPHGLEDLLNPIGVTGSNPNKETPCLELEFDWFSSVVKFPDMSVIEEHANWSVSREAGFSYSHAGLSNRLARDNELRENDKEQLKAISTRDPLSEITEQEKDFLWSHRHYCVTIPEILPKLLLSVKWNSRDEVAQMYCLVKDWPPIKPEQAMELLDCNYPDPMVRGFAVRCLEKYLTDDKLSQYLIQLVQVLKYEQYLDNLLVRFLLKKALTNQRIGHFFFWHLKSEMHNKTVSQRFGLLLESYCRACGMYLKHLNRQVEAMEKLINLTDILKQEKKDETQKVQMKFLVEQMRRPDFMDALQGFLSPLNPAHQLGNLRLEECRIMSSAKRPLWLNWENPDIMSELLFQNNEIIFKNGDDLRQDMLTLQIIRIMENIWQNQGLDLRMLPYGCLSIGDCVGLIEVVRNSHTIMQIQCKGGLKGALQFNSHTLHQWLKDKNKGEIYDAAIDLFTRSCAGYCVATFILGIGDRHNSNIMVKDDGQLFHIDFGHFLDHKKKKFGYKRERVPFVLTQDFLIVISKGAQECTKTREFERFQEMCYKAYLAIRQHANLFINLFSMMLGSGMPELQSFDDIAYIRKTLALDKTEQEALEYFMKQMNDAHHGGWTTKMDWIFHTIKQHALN
# Sequence of PIK3CG (human) (P48736 whole entry, looked up): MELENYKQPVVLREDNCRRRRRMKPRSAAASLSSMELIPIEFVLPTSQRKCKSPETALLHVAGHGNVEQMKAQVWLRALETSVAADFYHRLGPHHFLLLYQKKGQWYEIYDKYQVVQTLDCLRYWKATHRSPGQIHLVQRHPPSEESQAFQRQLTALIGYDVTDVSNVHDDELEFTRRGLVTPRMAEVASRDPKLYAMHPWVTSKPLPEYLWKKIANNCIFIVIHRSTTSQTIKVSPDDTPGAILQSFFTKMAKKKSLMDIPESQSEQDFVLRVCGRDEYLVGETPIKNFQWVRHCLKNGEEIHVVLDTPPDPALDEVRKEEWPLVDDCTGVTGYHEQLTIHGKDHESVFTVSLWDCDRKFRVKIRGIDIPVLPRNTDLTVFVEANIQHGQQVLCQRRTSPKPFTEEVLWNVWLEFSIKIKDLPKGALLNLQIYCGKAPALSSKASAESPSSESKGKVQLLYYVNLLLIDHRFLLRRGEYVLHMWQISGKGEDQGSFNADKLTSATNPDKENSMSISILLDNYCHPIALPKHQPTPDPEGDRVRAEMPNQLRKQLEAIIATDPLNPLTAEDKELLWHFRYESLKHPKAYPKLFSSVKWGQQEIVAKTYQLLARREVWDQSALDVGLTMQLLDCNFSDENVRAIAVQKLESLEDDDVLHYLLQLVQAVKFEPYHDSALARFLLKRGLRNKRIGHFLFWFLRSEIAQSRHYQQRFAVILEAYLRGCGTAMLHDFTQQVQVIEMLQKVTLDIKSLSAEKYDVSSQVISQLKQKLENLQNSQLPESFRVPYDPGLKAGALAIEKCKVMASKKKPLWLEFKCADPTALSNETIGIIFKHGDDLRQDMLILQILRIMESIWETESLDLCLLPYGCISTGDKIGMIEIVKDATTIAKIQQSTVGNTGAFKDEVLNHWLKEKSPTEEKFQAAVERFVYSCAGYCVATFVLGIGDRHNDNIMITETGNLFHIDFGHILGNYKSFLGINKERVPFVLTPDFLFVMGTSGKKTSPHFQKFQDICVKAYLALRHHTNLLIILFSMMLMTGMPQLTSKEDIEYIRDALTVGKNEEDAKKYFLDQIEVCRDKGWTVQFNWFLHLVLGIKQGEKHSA
# Sequence of PIK3CD (Human) (O00329 whole entry, looked up): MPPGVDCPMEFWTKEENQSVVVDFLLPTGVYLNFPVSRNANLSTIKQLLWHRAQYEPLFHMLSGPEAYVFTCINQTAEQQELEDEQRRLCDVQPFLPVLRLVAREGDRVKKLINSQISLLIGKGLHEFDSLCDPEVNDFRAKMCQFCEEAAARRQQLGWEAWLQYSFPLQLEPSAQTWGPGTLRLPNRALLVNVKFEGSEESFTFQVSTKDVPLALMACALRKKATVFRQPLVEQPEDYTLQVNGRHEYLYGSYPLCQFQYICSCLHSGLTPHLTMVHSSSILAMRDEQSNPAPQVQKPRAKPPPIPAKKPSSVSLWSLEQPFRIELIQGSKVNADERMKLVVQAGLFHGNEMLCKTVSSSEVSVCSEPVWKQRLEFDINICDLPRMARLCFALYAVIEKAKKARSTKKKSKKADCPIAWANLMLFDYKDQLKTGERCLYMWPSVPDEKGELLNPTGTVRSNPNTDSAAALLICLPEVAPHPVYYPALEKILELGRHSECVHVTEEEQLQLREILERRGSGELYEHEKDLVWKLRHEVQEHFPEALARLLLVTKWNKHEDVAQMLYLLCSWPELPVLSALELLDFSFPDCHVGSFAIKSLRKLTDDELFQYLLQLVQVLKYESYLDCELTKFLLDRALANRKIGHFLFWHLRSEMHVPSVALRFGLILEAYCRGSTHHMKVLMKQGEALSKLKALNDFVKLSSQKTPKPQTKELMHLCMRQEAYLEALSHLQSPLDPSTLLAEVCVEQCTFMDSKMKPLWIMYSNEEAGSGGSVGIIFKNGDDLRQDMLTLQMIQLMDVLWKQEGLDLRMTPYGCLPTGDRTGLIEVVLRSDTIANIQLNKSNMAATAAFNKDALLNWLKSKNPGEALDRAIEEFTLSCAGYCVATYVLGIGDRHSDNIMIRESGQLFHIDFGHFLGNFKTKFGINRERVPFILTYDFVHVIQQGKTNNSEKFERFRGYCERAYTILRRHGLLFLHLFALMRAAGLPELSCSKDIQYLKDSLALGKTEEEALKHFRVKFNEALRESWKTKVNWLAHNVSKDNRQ
IC50 (PIK3CA (human)),IC50 (PIK3CD (Human)),IC50 (PIK3CG (human)),IC50 (PIK3CB (Human)),SMILES
100 to 500 nM,500 to 1000 nM,100 to 500 nM,,CCNc1nc2ccc(-c3nn(C(C)C)c4ncnc(N)c34)cc2s1
≤ 50 nM,≤ 50 nM,≤ 50 nM,,CNC(=O)Nc1nc2ccc(-c3nn(C(C)C)c4ncnc(N)c34)cc2s1
≤ 50 nM,≤ 50 nM,≤ 50 nM,,CC(=O)Nc1nc2ccc(-c3nn(C4CCCC4)c4ncnc(N)c34)cc2s1
100 to 500 nM,50 to 100 nM,≤ 50 nM,,CC(C)n1nc(-c2ccc3nc(N)sc3c2)c2c(N)ncnc21
500 to 1000 nM,,,,CC(C)n1nc(-c2ccc3nc(NC(=O)C4CC4)sc3c2)c2c(N)ncnc21
50 to 100 nM,≤ 50 nM,≤ 50 nM,,CCn1nc(-c2ccc3nc(NC(C)=O)sc3c2)c2c(N)ncnc21
,25 to 50 nM,25 to 50 nM,,CC(C)n1nc(-c2cc3cc(O)cc(Cl)c3[nH]2)c2c(N)ncnc21
≤ 50 nM,≤ 50 nM,≤ 50 nM,≤ 50 nM,CNC(=O)Nc1nc2ccc(-c3cn(C4CCOCC4)c4ncnc(N)c34)cc2s1
500 to 1000 nM,,,,CC(C)n1nc(-c2ccc3nc(NCCO)sc3c2)c2c(N)ncnc21
100 to 500 nM,≤ 50 nM,≤ 50 nM,,CC(=O)Nc1nc2ccc(-c3nn(C(C)C)c4ncnc(N)c34)cc2s1
≤ 50 nM,≤ 50 nM,≤ 50 nM,50 to 100 nM,CNC(=O)Nc1nc2ccc(-c3cn(C4CCN(C(C)=O)CC4)c4ncnc(N)c34)cc2s1
,100 to 500 nM,100 to 500 nM,,CC(C)n1nc(-c2cc3cccc(O)c3[nH]2)c2c(N)ncnc21
100 to 500 nM,100 to 500 nM,100 to 500 nM,,CC(C)n1nc(-c2cc3ccc(O)cc3[nH]2)c2c(N)ncnc21
50 to 100 nM,100 to 500 nM,≤ 50 nM,,CNc1nc2ccc(-c3nn(C(C)C)c4ncnc(N)c34)cc2s1
,50 to 100 nM,100 to 500 nM,,CC(C)n1nc(-c2cc3cc(O)cc(F)c3[nH]2)c2c(N)ncnc21

SMILES,IC50 (PIK3CA (human)),IC50 (PIK3CD (Human)),IC50 (PIK3CG (human)),IC50 (PIK3CB (Human))
CC(=O)Nc1nc2ccc(-c3nn(C)c4ncnc(N)c34)cc2s1,500 to 1000 nM,,,
CC(=O)Nc1nc2ccc(-c3nn(C4CCC4)c4ncnc(N)c34)cc2s1,50 to 100 nM,50 to 100 nM,≤ 50 nM,
CNC(=O)Nc1nc2ccc(-c3cn(C(C)C)c4ncnc(N)c34)cc2s1,≤ 50 nM,≤ 50 nM,≤ 50 nM,≤ 50 nM
CC(=O)Nc1nc2ccc(-c3nn(C4CCOCC4)c4ncnc(N)c34)cc2s1,100 to 500 nM,≤ 50 nM,≤ 50 nM,
CCC(=O)Nc1nc2ccc(-c3nn(C(C)C)c4ncnc(N)c34)cc2s1,100 to 500 nM,,,
